Assay results: patent US20050267016A1, “CD-10 activated prodrug compounds” (priority 2001, published 2005)
Like-named read-outs stand apart in the source and are kept apart here. Marks after values point to notes of the source that are not given here.

How the values were obtained:
Ramos cells (CD10pos) = experiment: cells; details: for Ratio Ball-1:Ramos: ratio of IC50
Description: (§1) Suspension cells, BALL-1, Ramos and Namalwa cells were cultured in RPMI media containing 10% heat inactivated fetal calf serum (FCS). On the day of the study, the cells were collected, washed and resuspended at a concentration of 0.5×10^6 cells/ml in RPMI containing 10% FCS. 100 µl of cell suspension was added to 96 well plates. […] Finally 10 μl of a 100 μCi/ml ^3H-thymidine was added per well and the plates were incubated for 24 hours. The plates were harvested using a 96 well Harvester (Packard Instruments) and counted on a Packard Top Count counter. Four parameter logistic curves were fitted to the ^3H-thymidine incorporation as a function of drug molarity using Prism software to determine IC50 values.
(§2) The effect of two known inhibitors of CD10 on prodrug activity in Ramos, LNCaP and Ball-1 cells was evaluated. The IC50 of Suc-βAla-Ile-Ala-Leu-Dox was determined in the presence of increasing concentration of the CD10 inhibitors, phosphoramidon and thiorphan.

BALL-1 cells (CD10neg) = experiment: cells
Description: as §1, §2

[1] = test system: CD10 transfected CHO cells, Clone #7; experiment: 3H thymidine proliferation assay, CD10 transfected CHO Clone #7
Description: The fully assembled coding region was sub-cloned into a mammalian expression vector, downstream of the hCMV-MIE promoter. DNA sequence analysis confirmed sequence identity with the coding sequence of human CD10 (Genbank accession number Y00811). The expression plasmid was linearized and stably transfected into CHO—S cells. CD10 expressing transfectant clones were selected under 500 ug/mL of hygromycin and screened by flow cytometry for cell-surface CD10 expression using a commercially available anti-CD10-FITC antibody.

[2] = test system: HT-29 (colon carcinoma) cells; experiment: cells; format: cell-based, human; details: 48 hours total incubation, read-out: IC50 HT29
Description: (§3) Adherent cells, LNCaP (prostate carcinoma), HT-29 (colon carcinoma) and PC-3 (prostate carcinoma), were cultured in DMEM media containing 10% heat inactivated fetal calf serum (FCS). On the day of the study the cells were detached from the plate with a trypsin solution. The collected cells were washed and resuspended at a concentration of 0.25×10^6 cells/ml in DMEM containing 10% FCS. 100 μl of cell suspension were added to 96 well plates and the plates were incubated for 3 hours to allow the cells to adhere. […] The plates were then incubated for 24 hours, pulsed with 10 μl of a 100 μCi/ml ^3H-thymidine and incubated for an additional 24 hours (total incubation time 48 hours). The plates were harvested using a 96 well Harvester (Packard Instruments) and counted on a Packard Top Count Counter. Four parameter logistic curves were fitted to the ^3H-thymidine incorporation as a function of drug molarity using Prism software to determine IC50 values.

[3] = Repeat-dose MTD in tumor bearing mice; format: in vivo; details: mouse, in vivo
Description: (§4) In repeat-dose studies in tumor bearing mice, groups of ten mice were dosed with various amounts of prodrug for a total of five doses at either five day or 1 week intervals. […] Thus, the conclusion remains the same in that the prodrugs permit a much greater amount of therapeutic agent to be delivered to the body as a whole and to the vicinity of the target cell.
(§5) As would be expected, when a dose similar to the single-dose MTD (75 mg/kg) (See Example 16) was administered as a repeat-dose it was less well tolerated. […] All treated animals lost weight progressively throughout the study, while the vehicle control group gained up to 12% of the mean initial body weight. (FIG. 20). Two treated animals in the high dose group were terminated due to signs of toxicity, with body weight loss of greater that 20% of their initial weight. […] Thus cumulative toxicity resulted from repeat-dosing at these relatively high dose-levels.

[4] = test system: LS174t tumor bearing mice; experiment: Repeat-dose MTD in tumor bearing mice; format: in vivo
Description: as §4, §5

[5] = test system: LNCaP prostate carcinoma xenograft; experiment: LNCaP prostate carcinoma xenograft in nude mice, Q7D × 3 (Examples 30, 31); details: for Toxic Endpoint: >20% body weight loss; for Cancer Endpoint: tumors reaching 1000 mg
Description: In this model, 7.5 million LNCaP cells resuspended in 0.1 ml of phosphate buffered saline and 0.1 ml of Matrigel (Becton Dickinson) were injected into the side of male nude mice fed on high fat diet.

[6] = test system: LNCaP human prostate carcinoma xenografts
Description: LNCaP human prostate carcinoma cells express high levels of CD10 on the surface. Suc-βAla-Leu-Ala-Leu-Dox and Suc-Leu-Ala-Gly-Dox were tested at a single dose level Q7Dx5. […] The mice were weighed and tumors were measured (by caliper) at least once a week prior to start of dosing (Day 0), then twice a week during the study. Immediately before the start of dosing (Study Day −2 to Day 0), mice were randomized to various groups based on the weight of the tumors. […] Mice were euthanized after the tumors reached a cutoff weight of 1.5 g (cancer endpoint), or when mice suffered over 25% weight loss (toxic endpoint). Studies were terminated at Day 60.

[7] = test system: LNCaP (prostate carcinoma) cells
Description: as §3
as §3, with “carcinoma), PC-3 (prostate” for “carcinoma), HT-29 (colon”, “and 22 RV1” for “and PC-3”, “with 1:0” for “with 10”
as §2

[8] = Pharmacokinetic/metabolism study, single IV bolus; details: for Major Plasma Metabolite: mice; for Plasma AUC0-6 hr of AL-Dox or AG-Dox* / Plasma AUC0-6 hr of L-Dox or G-Dox*: single IV bolus approximately 100 μmol/Kg; for Plasma AUC0-6 hr of Dox: single IV bolus approximately 100 μmol/Kg of prodrug
Description: Plasma was obtained from three individual animals in each group at 5 minutes, 1, 2, 4, or 6 hr.

Porcine Kidney CD10 = experiment: Hydrolysis by purified CD10; format: biochemical; details: for % hydrolysis/10 hr: 12.5 μg/mL, 37° C., pH 7.4, product Leu-doxorubicin; for Fraction hydrolyzed relative to standard: standard Suc-βAla-Leu-Ala-Leu-Dox
Description: Reaction products were analyzed by HPLC with fluorescence detection. Rates were essentially linear over the incubation period. The observed product was Leu-doxorubicin.

[9] = Dose 75 mg/kg (Table 19), Q7DX5

COc1cccc2c1C(=O)c1c(O)c3c(c(O)c1C2=O)C[C@@](O)(C(=O)CO)C[C@@H]3O[C@H]1C[C@H](N)[C@H](O)[C@H](C)O1 [Doxorubicin, reference compound]
IC50 (Ramos cells (CD10pos); Homo sapiens, Ramos, 24 h, read-out: IC50 Ramos): 10 nM | IC50 (Ramos cells (CD10pos); Homo sapiens, Ramos, read-out: IC50 Ramos): 10 nM | IC50 (BALL-1 cells (CD10neg); Homo sapiens, BALL-1, 24 h, read-out: IC50 Ball-1): 20 nM | IC50 ([1]; Cricetulus griseus, CHO, read-out: IC50 Clone #7): 640 nM | IC50 ([2]; Homo sapiens, HT-29): 52 nM | MTD at 60 days ([3]; Q 7D × 5, tumor bearing mice): 4 mg/kg | Repeat Dose MTD, doxorubicin equivalent dose (in parentheses) ([4]; Q 7D × 5): 4 (4) mg/kg | RD-MTD as total exposure after 5 doses ([4]; total of 5 doses): 20 mg/kg doxorubicin equivalent | TGI D22 ([5]; 4 mg/kg Q7D × 3): 52.2 ± 28.8% | Tumor Weight (mg) D22 ([5]; 4 mg/kg Q7D × 3): 323.8 ± 60.8 mg | loss of group mean adjusted body weight ([5]; 4 mg/kg Q7D × 3, Day 22): about 7% | Survivor D36 ([5]; 4 mg/kg Q7D × 3, N 8): D36: 3 | Toxic Endpoint ([5]; 4 mg/kg Q7D × 3): 1 | Cancer Endpoint ([5]; 4 mg/kg Q7D × 3): 4 | Tumor Growth Inhibition (% over control) ([6]; Dose 5 mg/kg, Q7DX5): 32.5% | Tumor Weight (mg) D14 ([6]; Dose 5 mg/kg, Q7DX5): D14: 567 ± 77 (n = 6) mg | Toxicity (Weight Loss >25%) ([6]; male, NCr nude, mouse, in vivo, 5 mg/kg, 60 days): 4/6

COc1cccc2c1C(=O)c1c(O)c3c(c(O)c1C2=O)C[C@@](O)(C(=O)CO)C[C@@H]3O[C@H]1C[C@H](NC(=O)[C@H](CC(C)C)NC(=O)[C@H](C)NC(=O)[C@H](CC(C)C)NC(=O)CCNC(=O)CCC(=O)O)[C@H](O)[C@H](C)O1 [Suc-βAla-Leu-Ala-Leu-Dox]
IC50 [7]: 510 nM | IC50 ([7]; 48 h): 870 nM | shift of IC50 ([7]; LNCaP cells treated with 100 nM of phosphoramidon (data not shown)): 7 fold | Ratio PC-3:LNCaP ([7]; ratio of IC50): 32 | IC50 (Ramos cells (CD10pos)): 840 nM | IC50 (Ramos cells (CD10pos); 24 h): 6930 nM | Ratio Ball-1:Ramos (Ramos cells (CD10pos)): 2 | IC50 (BALL-1 cells (CD10neg); 24 h): 17000 nM | Major Plasma Metabolite [8]: Ala-Leu-Dox | TGI D22 ([5]; 32 mg/kg (18 Dox equi) Q7D × 3): 82.8 ± 27.7% | Tumor Weight (mg) D22 ([5]; 32 mg/kg (18 Dox equi) Q7D × 3): 116.3 ± 30.2 mg | Survivor D36 ([5]; 32 mg/kg Q7D × 3, N 8): 8** | Toxic Endpoint ([5]; 32 mg/kg Q7D × 3): 0 | Cancer Endpoint ([5]; 32 mg/kg Q7D × 3): 0 | Toxic Endpoint ([5]; 40 mg/kg Q7D × 3): 0 | Cancer Endpoint ([5]; 40 mg/kg Q7D × 3): 0 | TGI D22 ([5]; 50 mg/kg (28 Dox equi) Q7D × 3): 78.8 ± 27.5% | Tumor Weight (mg) D22 ([5]; 50 mg/kg (28 Dox equi) Q7D × 3): 143.4 ± 19.0 mg | Survivor D36 ([5]; 50 mg/kg Q7D × 3, N 8): 8** | Toxic Endpoint ([5]; 50 mg/kg Q7D × 3): 0 | Cancer Endpoint ([5]; 50 mg/kg Q7D × 3): 0 | maximal loss of group mean adjusted body weight ([5]; all three doses (32, 40, 50 mg/kg) Q7D × 3, to Day 36): ≤ 3% | Tumor Growth Inhibition (% over control) D14 [6, 9]: D14: 53.4** % | Tumor Growth Inhibition (% over control) D21 [6, 9]: D21: 66.2** % | Tumor Weight (mg) D14 [6, 9]: D14: 391 ± 70 (n = 7) mg | Tumor Weight (mg) D21 [6, 9]: D21: 318 ± 67 (n = 7) mg | Toxicity (Weight Loss >25%) ([6]; Dose 75 mg/kg (Table 19), Q7DX5, mice affected/total): 7/7 | % hydrolysis/10 hr (Porcine Kidney CD10): 10.9 % hydrolysis/10 hr | Fraction hydrolyzed relative to standard (Porcine Kidney CD10): 1.0

CC[C@H](C)[C@H](NC(=O)CCNC(=O)CCC(=O)O)C(=O)N[C@@H](C)C(=O)N[C@@H](CC(C)C)C(=O)N[C@H]1C[C@H](O[C@H]2C[C@](O)(C(=O)CO)Cc3c(O)c4c(c(O)c32)C(=O)c2c(OC)cccc2C4=O)O[C@@H](C)[C@H]1O [Suc-βAla-Ile-Ala-Leu-Dox]
IC50 ([7]; 48 h): 150 nM | Ratio Suc-β-Ala-Ile-Ala-Leu/Dox ([7]; LnCap, ratio of IC50): 3 | Ratio PC-3:LNCaP ([7]; ratio of IC50): 300 | IC50 (Ramos cells (CD10pos); 24 h): 420 nM | Ratio Ball-1:Ramos (Ramos cells (CD10pos)): 120 | IC50 (BALL-1 cells (CD10neg); 24 h): 50000 nM | Ratio Suc-β-Ala-Ile-Ala-Leu/Dox ([1]; Clone #7, ratio of IC50): 17 | Major Plasma Metabolite [8]: Leu-Dox | Plasma AUC0-6 hr of AL-Dox or AG-Dox* [8]: 0.5 µM·h | Plasma AUC0-6 hr of L-Dox or G-Dox* [8]: 8.5 µM·h | Plasma AUC0-6 hr of Dox [8]: 1.5 µM·h | MTD ([3]; total of 5 doses, read-out: RD-MTD as total exposure after 5 doses): ~150 mg/kg | animals terminated due to signs of toxicity ([4]; 68 mg/kg Q5DX5, groups of ten): Two | Tumor Weight (mg) D22 ([5]; 40 mg/kg (22 Dox equi) Q7D × 3): D22: 152.1 ± 19.3 mg | TGI D22 ([5]; 40 mg/kg (22 Dox equi) Q7D × 3, listed as Suc-bAla-Ile-Ala-Leu-Dox): 77.5 ± 27.5% | Survivor D36 ([5]; 40 mg/kg Q7D × 3, N 8): D36: 8** | Toxic Endpoint ([5]; 40 mg/kg Q7D × 3): 0 | Cancer Endpoint ([5]; 40 mg/kg Q7D × 3): 0 | % hydrolysis/10 hr (Porcine Kidney CD10): 22.1 % hydrolysis/10 hr | Fraction hydrolyzed relative to standard (Porcine Kidney CD10): 2.0

CC[C@H](C)[C@H](NC(=O)CCC(=O)O)C(=O)N[C@@H](C)C(=O)N[C@@H](CC(C)C)C(=O)N[C@H]1C[C@H](O[C@H]2C[C@](O)(C(=O)CO)Cc3c(O)c4c(c(O)c32)C(=O)c2c(OC)cccc2C4=O)O[C@@H](C)[C@H]1O [Suc-Ile-Ala-Leu-Dox]
Ratio PC-3:LNCaP ([7]; ratio of IC50): 83 | IC50 ([7]; read-out: IC50 LNCAP, 48 hours total incubation): 1100 nM | Ratio Ball-1:Ramos (Ramos cells (CD10pos)): 4 | IC50 (Ramos cells (CD10pos); read-out: IC50 Ramos, 24 hours): 6430 nM | IC50 (BALL-1 cells (CD10neg); read-out: IC50 Ball-1, 24 hours): 26000 nM | Major Plasma Metabolite [8]: Leu-Dox | Plasma AUC0-6 hr of AL-Dox or AG-Dox* [8]: 1.0 µM·h | Plasma AUC0-6 hr of L-Dox or G-Dox* [8]: 6.2 µM·h | Plasma AUC0-6 hr of Dox [8]: 0.9 µM·h | IC50 [2]: 47000 nM | % hydrolysis/10 hr (Porcine Kidney CD10): 12.5 % hydrolysis/10 hr | Fraction hydrolyzed relative to standard (Porcine Kidney CD10): 1.1
